Experimental data taken from US7501419B2, “4-Squarylpiperazine derivatives as antiviral agents” (priority 2006, dated 2009).

Each compound was assayed on HIV-1 (assay: Single-round infectious HIV-1 luciferase reporter virus infection of HeLa CD4 cells). Settings: Human immunodeficiency virus 1, HeLa, 72 h.
Format: cell-based
Experimental: • Virus production—Human embryonic Kidney cell line, 293T, was propagated in Dulbecco's Modified Eagle Medium (Invitrogen, Carlsbad, Calif.) containing 10% fetal Bovine serum (FBS, Sigma, St. Louis, Mo.). • Virus infection—Human epithelial cell line, HeLa, expressing the HIV-1 receptor CD4 was propagated in Dulbecco's Modified Eagle Medium (Invitrogen, Carlsbad, Calif.) containing 10% fetal Bovine serum (FBS, Sigma, St. Louis , Mo.) and supplemented with 0.2 mg/mL Geneticin (Invitrogen, Carlsbad, Calif.).
Transfections were performed using lipofectAMINE PLUS reagent as described by the manufacturer (Invitrogen, Carlsbad, Calif.).
• 1. […] Compound was added in a 2 μl dimethylsulfoxide solution, so that the final assay concentration would be ≦10 μM. • 3. 100 μl of single-round infectious reporter virus in Dulbecco's Modified Eagle Medium was then added to the plated cells and compound at an approximate multiplicity of infection (MOI) of 0.01, resulting in a final volume of 200 μl per well. • 4. Virally-infected cells were incubated at 37 degrees Celsius, in a CO2 incubator, and harvested 72 h after infection. • 5. Viral infection was monitored by measuring luciferase expression from viral DNA in the infected cells using a luciferase reporter gene assay kit, as described by the manufacturer (Roche Molecular Biochemicals, Indianapolis, Ind.). Infected cell supernatants were removed and 50 μl of lysis buffer was added per well. After 15 minutes, 50 μl of freshly-reconstituted luciferase assay reagent was added per well. Luciferase activity was then quantified by measuring luminescence using a Wallac microbeta scintillation counter. • 6. […] An EC50 provides a method for comparing the antiviral potency of the compounds of this disclosure. The effective concentration for fifty percent inhibition (EC50) was calculated with the Microsoft Excel Xlfit curve fitting software. For each compound, curves were generated from percent inhibition calculated at 10 different concentrations by using a four parameter logistic model (model 205).

`O=C(C(=O)N1CCN(c2c(N3CCSCC3)c(=O)c2=O)CC1)c1c[nH]c2cccc(F)c12` [Number 21] and `CN1CCN(c2c(N3CCN(C(=O)C(=O)c4c[nH]c5cccc(F)c45)CC3)c(=O)c2=O)CC1` [Number 24] cannot be ordered by EC50: over 5000 nM for the first, over 5000 nM for the second.

`CCN(Cc1ccccc1)c1c(N2CCN(C(=O)C(=O)c3c[nH]c4cccc(F)c34)CC2)c(=O)c1=O` [Number 22] and `CCCN(CCC)c1c(N2CCN(C(=O)C(=O)c3c[nH]c4cccc(F)c34)CC2)c(=O)c1=O` [Number 25] cannot be ordered by EC50: over 5000 nM for the first, over 5000 nM for the second.

First: O=C(C(=O)N1CCN(c2c(N3CCc4ccccc4C3)c(=O)c2=O)CC1)c1c[nH]c2cccc(F)c12 [Number 23]
Second: O=C(C(=O)N1CCN(c2c(-c3cccs3)c(=O)c2=O)CC1)c1c[nH]c2cccc(F)c12 [Number 27]
The EC50 of the first is higher: over 5000 nM for the first, 50 to 500 nM for the second.

Compared with `O=C(C(=O)N1CCN(c2c(N3CCC4(CCCC4)CC3)c(=O)c2=O)CC1)c1c[nH]c2cccc(F)c12` [Number 26], `O=C(C(=O)N1CCN(c2c(-c3ccco3)c(=O)c2=O)CC1)c1c[nH]c2cccc(F)c12` [Number 28] is lower in EC50: over 5000 nM for the first, 500 to 5000 nM for the second. The second is the more potent here.

`COc1ncc(OC)c2c(C(=O)C(=O)N3CCN(c4c(-c5ccccc5)c(=O)c4=O)CC3)c[nH]c12` [Number 29] and `COc1cnc(Cl)c2[nH]cc(C(=O)C(=O)N3CCN(c4c(-c5ccccc5)c(=O)c4=O)CC3)c12` [Number 31] fall in the same range of EC50: 50 to 500 nM for the first, 50 to 500 nM for the second.

Compared with `COc1ncc(OC)c2c(C(=O)C(=O)N3CCN(c4c(-c5cccs5)c(=O)c4=O)CC3)c[nH]c12` [Number 30], `COc1ncc(OC)c2c(C(=O)C(=O)N3CCN(c4c(-c5nccs5)c(=O)c4=O)CC3)c[nH]c12` [Number 43] is higher in EC50: 50 to 500 nM for the first, 500 to 5000 nM for the second.

`COc1ncc(OC)c2c(C(=O)C(=O)N3CCN(c4c(-c5ccccc5)c(=O)c4=O)C[C@H]3C)c[nH]c12` [Number 32] and `COc1ncc(OC)c2c(C(=O)C(=O)N3CCN(c4c(-c5ccccc5)c(=O)c4=O)C[C@@H]3C)c[nH]c12` [Number 33] fall in the same range of EC50: 50 to 500 nM for the first, 50 to 500 nM for the second.

`COc1cnc(Br)c2[nH]cc(C(=O)C(=O)N3CCN(c4c(-c5ccccc5)c(=O)c4=O)CC3)c12` [Number 34] and `COc1cnc(-n2cncn2)c2[nH]cc(C(=O)C(=O)N3CCN(c4c(-c5ccccc5)c(=O)c4=O)CC3)c12` [Number 36] fall in the same range of EC50: 50 to 500 nM for the first, 50 to 500 nM for the second.

`COc1cnc(-c2cnccn2)c2[nH]cc(C(=O)C(=O)N3CCN(c4c(-c5ccccc5)c(=O)c4=O)CC3)c12` [Number 35] and `COc1cnc(-n2ccc(C)n2)c2[nH]cc(C(=O)C(=O)N3CCN(c4c(-c5ccccc5)c(=O)c4=O)CC3)c12` [Number 40] fall in the same range of EC50: 50 to 500 nM for the first, 50 to 500 nM for the second.

First: COc1ncc(OC)c2c(C(=O)C(=O)N3CCN(c4c(-c5ncco5)c(=O)c4=O)CC3)c[nH]c12 [Number 37]
Second: COc1ncc(OC)c2c(C(=O)C(=O)N3CCN(c4c(-c5ccc(F)cc5)c(=O)c4=O)CC3)c[nH]c12 [Number 41]
The EC50 of the first is higher: 500 to 5000 nM for the first, 50 to 500 nM for the second. The second is the more potent here.

`COc1ncc(OC)c2c(C(=O)C(=O)N3CCN(c4c(-c5ccccc5)c(=O)c4=O)[C@@H](C)C3)c[nH]c12` [Number 38] and `COc1ncc(OC)c2c(C(=O)C(=O)N3CCN(c4c(-c5ccccc5)c(=O)c4=O)[C@H](C)C3)c[nH]c12` [Number 39] fall in the same range of EC50: 50 to 500 nM for the first, 50 to 500 nM for the second.

Compound `COc1cccc(-c2c(N3CCN(C(=O)C(=O)c4c[nH]c5c(OC)ncc(OC)c45)CC3)c(=O)c2=O)c1` [Number 42] has an EC50 of 50 to 500 nM.
